Measurements as given in US11666600B2, “Methods for culturing and/or differentiating hematopoietic stem cells into progenitors and uses thereof” (HEMA-QUEBEC, priority 2015, dated 2023).

Assays:
[1] = tested on: CD34+ cells from human umbilical cord blood; experiment: CD34+ cell culture and expansion while limiting differentiation (StemSpan ACF + CC110), flow cytometry; assay type: cell-based
Description: CD34+ cells were isolated from human umbilical cord blood by positive selection according to standard procedures. Purified CD34+ cells from either single units or pooled from several units of cord blood were seeded in 1 mL of the appropriate culture medium in 24-well plates at a density of approximately 10^5 cells/mL. Cells were maintained at a density of 10^5-10^6 cells/mL throughout the culture by dilution and/or medium replacement.
For CD34+ cell culture and expansion while limiting differentiation, cells were grown in StemSpan™-ACF medium ([…]™ Technologies) supplemented with StemSpan™ CC110 cytokine cocktail ([…]™ Technologies), and counted on days 4, 7, 10, 14, 17, and 21.
Cell counts and viability were measured using the NucleoCounter NC-250™ Viability and Cell Count Assay system (ChemoMetec Inc., Davis, Calif.), according to the manufacturer's instructions.
Cell phenotypes were determined by flow cytometry on the indicated days using the following panel of labeled primary antibodies: CD34-FITC, CD45RA-APC, CD41a-APC, CD42b-PE, and CD235-PE.
CD34+ cells were isolated and cultured in a medium suitable for maintaining their self-renewal while limiting their differentiation into progenitors (StemSpan™ ACF supplemented with StemSpan™ CC110 cytokine cocktail, as described in Example 1.2).
Cell phenotypic profiles of the expanded CD34+ cells were determined on days 4, 7, 10, 14, 17, and 21 by flow cytometry as described in Example 1.3.

[2] = tested on: CD34+ cells from human umbilical cord blood; experiment: CFU-MK assay (Megacult C) on cells grown in ACF + BS1; assay type: cell-based; conditions: 39° C. + PIC 35 nM; FIG. 2
Description: Aliquots of cells grown in StemSpan™ ACF+BS1 culture medium were collected on the indicated days, and CFU-MK were determined using the Megacult™ C kit from […]™ Technologies, according to the manufacturer's instructions.

Structure (SMILES): Cl.Cn1nnc(-c2ccc3c(c2)[nH]c2nc(Cc4ccccc4)nc(N[C@H]4CC[C@H](N)CC4)c23)n1 [PIC, (1r,4r)-N1-(2-benzyl-7-(2-methyl-2H-tetrazol-5-yl)-9H-pyrimido[4,5-b]indol-4-yl)cyclohexane-1,4-diamine hydrochloride]
- expansion of CD34+/CD45RA− LT-HSCs ([1]; 39° C. + PIC 35 nM, FIG. 3B): potently enhanced
- Percentage of cells bearing CD34+ ([1]; Day 4, 37° C. + PIC 35 nM): 97.91%
- Percentage of cells bearing CD34+/CD41+ ([1]; Day 4, 37° C. + PIC 35 nM): 12.51%
- Percentage of cells bearing CD34+/CD235+ ([1]; Day 4, 37° C. + PIC 35 nM): 4.83%
- Percentage of cells bearing CD41+ ([1]; Day 4, 37° C. + PIC 35 nM): 12.53%
- Percentage of cells bearing CD42+ ([1]; Day 4, 37° C. + PIC 35 nM): 1.08%
- Percentage of cells bearing CD45RA+ ([1]; Day 4, 37° C. + PIC 35 nM): 65.34%
- Percentage of cells bearing CD235+ ([1]; Day 4, 37° C. + PIC 35 nM): 4.87%
- Percentage of cells bearing CD34+ ([1]; Day 4, 39° C. + PIC 35 nM): 94.74%
- Percentage of cells bearing CD34+/CD41+ ([1]; Day 4, 39° C. + PIC 35 nM): 8.37%
- Percentage of cells bearing CD34+/CD235+ ([1]; Day 4, 39° C. + PIC 35 nM): 3.65%
- Percentage of cells bearing CD41+ ([1]; Day 4, 39° C. + PIC 35 nM): 9.05%
- Percentage of cells bearing CD42+ ([1]; Day 4, 39° C. + PIC 35 nM): 2.21%
- Percentage of cells bearing CD45RA+ ([1]; Day 4, 39° C. + PIC 35 nM): 57.92%
- Percentage of cells bearing CD235+ ([1]; Day 4, 39° C. + PIC 35 nM): 4.11%
- Percentage of cells bearing CD34+ ([1]; Day 7, 37° C. + PIC 35 nM): 94.61%
- Percentage of cells bearing CD34+/CD41+ ([1]; Day 7, 37° C. + PIC 35 nM): 15.74%
- Percentage of cells bearing CD34+/CD235+ ([1]; Day 7, 37° C. + PIC 35 nM): 5.28%
- Percentage of cells bearing CD41+ ([1]; Day 7, 37° C. + PIC 35 nM): 15.93%
- Percentage of cells bearing CD42+ ([1]; Day 7, 37° C. + PIC 35 nM): 1.30%
- Percentage of cells bearing CD45RA+ ([1]; Day 7, 37° C. + PIC 35 nM): 80.07%
- Percentage of cells bearing CD34+ ([1]; Day 7, 39° C. + PIC 35 nM): 88.27%
- Percentage of cells bearing CD34+/CD41+ ([1]; Day 7, 39° C. + PIC 35 nM): 16.17%
- Percentage of cells bearing CD34+/CD235+ ([1]; Day 7, 39° C. + PIC 35 nM): 9.68%
- Percentage of cells bearing CD41+ ([1]; Day 7, 39° C. + PIC 35 nM): 18.12%
- Percentage of cells bearing CD42+ ([1]; Day 7, 39° C. + PIC 35 nM): 2.92%
- Percentage of cells bearing CD45RA+ ([1]; Day 7, 39° C. + PIC 35 nM): 74.14%
- Percentage of cells bearing CD235+ ([1]; Day 7, 39° C. + PIC 35 nM): 10.89%
- Percentage of cells bearing CD34+ ([1]; Day 10, 37° C. + PIC 35 nM): 84.26%
- Percentage of cells bearing CD34+/CD41+ ([1]; Day 10, 37° C. + PIC 35 nM): 12.94%
- Percentage of cells bearing CD34+/CD235+ ([1]; Day 10, 37° C. + PIC 35 nM): 2.16%
- Percentage of cells bearing CD41+ ([1]; Day 10, 37° C. + PIC 35 nM): 14.19%
- Percentage of cells bearing CD42+ ([1]; Day 10, 37° C. + PIC 35 nM): 0.48%
- Percentage of cells bearing CD45RA+ ([1]; Day 10, 37° C. + PIC 35 nM): 88.37%
- Percentage of cells bearing CD235+ ([1]; Day 10, 37° C. + PIC 35 nM): 2.33%
- Percentage of cells bearing CD34+ ([1]; Day 10, 39° C. + PIC 35 nM): 71.28%
- Percentage of cells bearing CD34+/CD41+ ([1]; Day 10, 39° C. + PIC 35 nM): 20.80%
- Percentage of cells bearing CD34+/CD235+ ([1]; Day 10, 39° C. + PIC 35 nM): 7.94%
- Percentage of cells bearing CD41+ ([1]; Day 10, 39° C. + PIC 35 nM): 27.40%
- Percentage of cells bearing CD42+ ([1]; Day 10, 39° C. + PIC 35 nM): 1.35%
- Percentage of cells bearing CD45RA+ ([1]; Day 10, 39° C. + PIC 35 nM): 82.34%
- Percentage of cells bearing CD235+ ([1]; Day 10, 39° C. + PIC 35 nM): 9.36%
- Percentage of cells bearing CD34+ ([1]; Day 14, 37° C. + PIC 35 nM): 58.28%
- Percentage of cells bearing CD34+/CD41+ ([1]; Day 14, 37° C. + PIC 35 nM): 9.55%
- Percentage of cells bearing CD34+/CD45RA− ([1]; Day 14, 37° C. + PIC 35 nM): 15.22%
- Percentage of cells bearing CD34+/CD235+ ([1]; Day 14, 37° C. + PIC 35 nM): 1.39%
- Percentage of cells bearing CD41+ ([1]; Day 14, 37° C. + PIC 35 nM): 15.16%
- Percentage of cells bearing CD42+ ([1]; Day 14, 37° C. + PIC 35 nM): 0.19%
- Percentage of cells bearing CD45RA+ ([1]; Day 14, 37° C. + PIC 35 nM): 84.63%
- Percentage of cells bearing CD235+ ([1]; Day 14, 37° C. + PIC 35 nM): 2.10%
- Percentage of cells bearing CD34+ ([1]; Day 14, 39° C. + PIC 35 nM): 48.58%
- Percentage of cells bearing CD34+/CD41+ ([1]; Day 14, 39° C. + PIC 35 nM): 13.88%
- Percentage of cells bearing CD34+/CD45RA− ([1]; Day 14, 39° C. + PIC 35 nM): 19.74%
- Percentage of cells bearing CD34+/CD235+ ([1]; Day 14, 39° C. + PIC 35 nM): 3.72%
- Percentage of cells bearing CD41+ ([1]; Day 14, 39° C. + PIC 35 nM): 32.04%
- Percentage of cells bearing CD42+ ([1]; Day 14, 39° C. + PIC 35 nM): 1.16%
- Percentage of cells bearing CD45RA+ ([1]; Day 14, 39° C. + PIC 35 nM): 81.97%
- Percentage of cells bearing CD34+ ([1]; Day 17, 37° C. + PIC 35 nM): 48.29%
- Percentage of cells bearing CD34+/CD41+ ([1]; Day 17, 37° C. + PIC 35 nM): 9.75%
- Percentage of cells bearing CD34+/CD45RA− ([1]; Day 17, 37° C. + PIC 35 nM): 13.58%
- Percentage of cells bearing CD34+/CD235+ ([1]; Day 17, 37° C. + PIC 35 nM): 0.52%
- Percentage of cells bearing CD41+ ([1]; Day 17, 37° C. + PIC 35 nM): 24.70%
- Percentage of cells bearing CD42+ ([1]; Day 17, 37° C. + PIC 35 nM): 0.63%
- Percentage of cells bearing CD45RA+ ([1]; Day 17, 37° C. + PIC 35 nM): 87.89%
- Percentage of cells bearing CD235+ ([1]; Day 17, 37° C. + PIC 35 nM): 3.94%
- differentiation of the cells towards the megakaryocytic and erythroid (CD235+) lineages ([1]; combined mild hyperthermia (39° C.) and PIC 35 nM): did not lead to an enhanced differentiation
- combined effect of mild hyperthermia and PIC on the number of CFU-MK [2]: synergized
